# Legend:
# oat first-internode = details: published reports; cited from earlier work
# plants = test: Plant growth regulation (general statement); assay type: in vivo; details: analogous compounds
# tobacco callus = test: Growth of tobacco callus, triacontanol and octocosanol (Example XIX, FIG. 6); assay type: cell-based, Nicotiana tabacum, var. Wisconsin 38; details: four concentrations, 10 days
# Experimental: Cell cultures were separately grown in disposable petri dishes.
# 1. Haploid tobacco (Nicotiana tabacum, var. Wisconsin 38)
# The cultures were grown on the basic medium of mineral salts described by Linsmaier and Skoog (Physiol. Plant, […] (1965)). Vitamins and hormones varied for each tissue (Table X-1) to maintain the tissues in an undifferentiated state. For all of the tissues inositol was 100 mg/liter and agar 1%. Sucrose was 3% for all but the bean which was 2%.
# Callus was produced from pith for tobacco, potato and tomato. Bean callus was produced from hypocotyl sections and barley callus from immature ovarian tissue. Subcultures were maintained on the appropriate media.
# Stock solutions of triacontanol were prepared at a concentration of 100 μg/ml. The solvent used was glass distilled benzene. The lower concentrations were obtained by serial dilutions. Treatments were applied to 4.5 cm Whatman #1 filter paper disks in 100 μl aliquots. Controls received 100 μl of glass distilled benzene. The solvent was evaporated for approximately 15 minutes and the filter papers were then placed on the agar medium.
# Callus tissue was then broken into pieces of approximately the same size (10 mg) and placed in the petri dishes on the treated filter paper (one piece per dish). For experiments conducted in the light the intensity was approximately 2.0 microwatts/cm^2 -namometer. Fresh weight measurements were made after 12 days of growth.
# A stock solution of octocosanol (CH3 (CH2)26 CH2 OH was prepared in the same manner as the triacontanol solutions above described.
# The effect of four concentrations of triacontanol and octocosanol on tobacco callus was determined, using the materials and procedures above described in this Example. The dishes were tared and weighed at the end of 10 days. The results are illustrated in FIG. 6 of the drawings.
Compound,"growth, oat first-internode method (oat first-internode)",effect as plant growth regulator (plants),growth over the control (tobacco callus)
"CCCCCCCCCCCCCCCCCCCCCCO [1-docosanol, reference compound]",increase growth,,
CCCCCCCCCCCCCCCCCCCCCCCCCCCC(=O)O [octocosanoic acid],,ineffective,
"CCCCCCCCCCCCCCCCCCCCCCCCCCCCO [octocosanol, reference compound]",,ineffective,no effect on growth
CCCCCCCCCCCCCCCCCCCCCCCCCCCCCC [triacontane],,ineffective,

# From US4150970A, “Growth regulator for plants” (Board of Trustees of Michigan State University, priority 1977, dated 1979)
